Results published in patent US20260183297A1, “SELECTION OF PATIENTS FOR THE TREATMENT OF FADS1-MEDIATED DISEASES OR DISORDERS USING FADS-1 INHIBITORS” (AMGEN INC., priority 2022, published 2026).
Marks after values point to notes of the source that are not given here.

Assay: Fatty acid concentration and composition of plasma lipid subfractions (GC) of Compound A-treated DIO mice
Type: in vivo, mouse
Method: FIG. 16(b) provides fatty acid composition of total plasma and each of the 4 plasma lipid subfractions of vehicle treated (WT) and 30 mg/kg Compound A-treated WT DIO mice (WT+A). (a-b) n=3 samples per group (each sample pooled from 2 mice). (a) Data are shown as minimum to maximum. t-test *P<0.05, **P<0.01, ***P<0.001.

[1] = DIO mouse plasma, Cholesterol ester, 30 mg/kg, GC, mean
[2] = DIO mouse plasma, Cholesterol ester, 30 mg/kg, GC, mean % composition
[3] = DIO mouse plasma, Free fatty acids, 30 mg/kg, GC, mean
[4] = DIO mouse plasma, Free fatty acids, 30 mg/kg, GC, mean % composition
[5] = DIO mouse plasma, Phospholipids, 30 mg/kg, GC, mean
[6] = DIO mouse plasma, Phospholipids, 30 mg/kg, GC, mean % composition

With `COc1ccn2c(=O)c(-c3cnn(CC(F)(F)C(F)(F)F)c3)c(C(F)(F)F)nc2c1` [Compound A, 8-methoxy-3-(1-(2,2,3,3,3-pentafluoropropyl)-1H-pyrazol-4-yl)-2-(trifluoromethyl)-4H-pyrido[1,2-a]pyrimidin-4-one] the “EPA/AA ratio in all four lipid subfractions” value (Compound A-treated DIO mice, plasma) was “increased”, the “C14:0 concentration, Cholesterol ester” value [1] was 29.9 µg/mL and the “C16:0 concentration, Cholesterol ester” value [1] was 90.5 µg/mL. For the same molecule, the “C16:1n7 concentration, Cholesterol ester” value [1] was 27.7 µg/mL, the “C16:1n7t concentration, Cholesterol ester” value [1] was 2.6 µg/mL and the “C18:0 concentration, Cholesterol ester” value [1] was 50.3 µg/mL. The “C18:1n9 concentration, Cholesterol ester” value [1] was 113 µg/mL, the “C18:1t concentration, Cholesterol ester” value [1] was 8.1 µg/mL and the “C18:2n6 concentration, Cholesterol ester” value [1] was 516 µg/mL. The “C18:2n6t concentration, Cholesterol ester” value [1] was 10.4* μg mL^−1, the “C18:3n3 concentration, Cholesterol ester” value [1] was 3.0 µg/mL and the “C18:3n6 concentration, Cholesterol ester” value [1] was 20.4* μg mL^−1. For the same molecule, the “C20:0 concentration, Cholesterol ester” value [1] was 1.2 µg/mL, the “C20:1n9 concentration, Cholesterol ester” value [1] was 0.6 µg/mL and the “C20:2n6 concentration, Cholesterol ester” value [1] was 1.4 µg/mL. For the same molecule, the “C20:3n6 concentration, Cholesterol ester” value [1] was 124*** μg mL^−1, the “C20:5n3 concentration, Cholesterol ester” value [1] was 2.8* μg mL^−1 and the “C22:0 concentration, Cholesterol ester” value [1] was 1.3 µg/mL. For the same molecule, the “C22:4n6 concentration, Cholesterol ester” value [1] was 1.5 µg/mL, the “C22:5n3 concentration, Cholesterol ester” value [1] was 31.0 µg/mL and the “C22:5n6 concentration, Cholesterol ester” value [1] was 1.7 µg/mL. The “C22:6n3 concentration, Cholesterol ester” value [1] was 37.4* μg mL^−1, the “C24:0 concentration, Cholesterol ester” value [1] was 1.2 µg/mL and the “C24:1n9 concentration, Cholesterol ester” value [1] was 2.6 µg/mL. The “Total fatty acids concentration, Cholesterol ester” value [1] was 1150* μg mL^−1, the “C14:0 composition, Cholesterol ester” value [2] was 2.61* % and the “C16:0 composition, Cholesterol ester” value [2] was 7.89*** %. The “C16:1n7 composition, Cholesterol ester” value [2] was 2.39* %, the “C16:1n7t composition, Cholesterol ester” value [2] was 0.23** % and the “C18:0 composition, Cholesterol ester” value [2] was 4.41* %. The “C18:1n9 composition, Cholesterol ester” value [2] was 9.73* %, the “C18:1t composition, Cholesterol ester” value [2] was 0.7*** % and the “C18:2n6 composition, Cholesterol ester” value [2] was 44.7*** %. The “C18:2n6t composition, Cholesterol ester” value [2] was 0.9*** %, the “C18:3n3 composition, Cholesterol ester” value [2] was 0.27% and the “C18:3n6 composition, Cholesterol ester” value [2] was 1.76*** %. The “C20:0 composition, Cholesterol ester” value [2] was 0.1%, the “C20:1n9 composition, Cholesterol ester” value [2] was 0.05% and the “C20:2n6 composition, Cholesterol ester” value [2] was 0.12%. For the same molecule, the “C20:3n6 composition, Cholesterol ester” value [2] was 10.8*** %, the “C20:4n6 composition, Cholesterol ester” value [2] was 6.34*** % and the “C20:5n3 composition, Cholesterol ester” value [2] was 0.25%. For the same molecule, the “C22:0 composition, Cholesterol ester” value [2] was 0.12%, the “C22:4n6 composition, Cholesterol ester” value [2] was 0.13% and the “C22:5n3 composition, Cholesterol ester” value [2] was 2.71* %. For the same molecule, the “C22:5n6 composition, Cholesterol ester” value [2] was 0.14%, the “C22:6n3 composition, Cholesterol ester” value [2] was 3.26** % and the “C24:0 composition, Cholesterol ester” value [2] was 0.11%. For the same molecule, the “C24:1n9 composition, Cholesterol ester” value [2] was 0.23%, the “C14:0 concentration, Free fatty acids” value [3] was 18.8 µg/mL and the “C16:0 concentration, Free fatty acids” value [3] was 132.7 µg/mL. For the same molecule, the “C16:1n7 concentration, Free fatty acids” value [3] was 8.7 µg/mL, the “C16:1n7t concentration, Free fatty acids” value [3] was 0.5 µg/mL and the “C18:0 concentration, Free fatty acids” value [3] was 76.8 µg/mL. For the same molecule, the “C18:1n9 concentration, Free fatty acids” value [3] was 98.1* μg mL^−1, the “C18:1t concentration, Free fatty acids” value [3] was 2.5 µg/mL and the “C18:2n6 concentration, Free fatty acids” value [3] was 38.5 µg/mL. For the same molecule, the “C18:2n6t concentration, Free fatty acids” value [3] was 3.3 µg/mL, the “C18:3n3 concentration, Free fatty acids” value [3] was 1.6 µg/mL and the “C18:3n6 concentration, Free fatty acids” value [3] was 1.2 µg/mL. The “C20:0 concentration, Free fatty acids” value [3] was 1.8 µg/mL, the “C20:1n9 concentration, Free fatty acids” value [3] was 2.8 µg/mL and the “C20:2n6 concentration, Free fatty acids” value [3] was 1.1 µg/mL. For the same molecule, the “C20:3n6 concentration, Free fatty acids” value [3] was 8.1** μg mL^−1, the “C20:4n6 concentration, Free fatty acids” value [3] was 2.9*** μg mL^−1 and the “C20:5n3 concentration, Free fatty acids” value [3] was 8.3 µg/mL. For the same molecule, the “C22:0 concentration, Free fatty acids” value [3] was 1.4 µg/mL, the “C22:4n6 concentration, Free fatty acids” value [3] was 1.1* μg mL^−1 and the “C22:5n3 concentration, Free fatty acids” value [3] was 32.0 µg/mL. The “C22:5n6 concentration, Free fatty acids” value [3] was 0.4 µg/mL, the “C22:6n3 concentration, Free fatty acids” value [3] was 5.3 µg/mL and the “C24:0 concentration, Free fatty acids” value [3] was 1.0 µg/mL. For the same molecule, the “C24:1n9 concentration, Free fatty acids” value [3] was 1.8 µg/mL, the “Total fatty acids concentration, Free fatty acids” value [3] was 451 µg/mL and the “C14:0 composition, Free fatty acids” value [4] was 4.15%. For the same molecule, the “C16:0 composition, Free fatty acids” value [4] was 29.5%, the “C16:1n7 composition, Free fatty acids” value [4] was 1.91% and the “C16:1n7t composition, Free fatty acids” value [4] was 0.11%. For the same molecule, the “C18:0 composition, Free fatty acids” value [4] was 17.1* %, the “C18:1n9 composition, Free fatty acids” value [4] was 21.8% and the “C18:1t composition, Free fatty acids” value [4] was 0.57%. For the same molecule, the “C18:2n6 composition, Free fatty acids” value [4] was 8.61%, the “C18:2n6t composition, Free fatty acids” value [4] was 0.76% and the “C18:3n3 composition, Free fatty acids” value [4] was 0.34%. For the same molecule, the “C18:3n6 composition, Free fatty acids” value [4] was 0.26* %, the “C20:0 composition, Free fatty acids” value [4] was 0.39% and the “C20:1n9 composition, Free fatty acids” value [4] was 0.61%. For the same molecule, the “C20:2n6 composition, Free fatty acids” value [4] was 0.25%, the “C20:3n6 composition, Free fatty acids” value [4] was 1.82% and the “C20:4n6 composition, Free fatty acids” value [4] was 0.64*** %. The “C20:5n3 composition, Free fatty acids” value [4] was 1.75%, the “C22:0 composition, Free fatty acids” value [4] was 0.31% and the “C22:4n6 composition, Free fatty acids” value [4] was 0.25* %. For the same molecule, the “C22:5n3 composition, Free fatty acids” value [4] was 7.14%, the “C22:5n6 composition, Free fatty acids” value [4] was 0.10% and the “C22:6n3 composition, Free fatty acids” value [4] was 1.15%. The “C24:0 composition, Free fatty acids” value [4] was 0.22%, the “C24:1n9 composition, Free fatty acids” value [4] was 0.39% and the “C14:0 concentration, Phospholipids” value [5] was 5.3 µg/mL. For the same molecule, the “C16:0 concentration, Phospholipids” value [5] was 591 µg/mL, the “C16:1n7 concentration, Phospholipids” value [5] was 7.7 µg/mL and the “C18:0 concentration, Phospholipids” value [5] was 302*** μg mL^−1. For the same molecule, the “C18:1n9 concentration, Phospholipids” value [5] was 260 µg/mL, the “C18:1t concentration, Phospholipids” value [5] was 3.9 µg/mL and the “C18:2n6 concentration, Phospholipids” value [5] was 400** μg mL^−1. The “C18:2n6t concentration, Phospholipids” value [5] was 4.5 µg/mL, the “C18:3n3 concentration, Phospholipids” value [5] was 1.0 µg/mL and the “C18:3n6 concentration, Phospholipids” value [5] was 4.3 µg/mL. The “C20:0 concentration, Phospholipids” value [5] was 1.4** μg mL^−1, the “C20:1n9 concentration, Phospholipids” value [5] was 5.8 µg/mL and the “C20:2n6 concentration, Phospholipids” value [5] was 9.0 µg/mL. For the same molecule, the “C20:3n6 concentration, Phospholipids” value [5] was 382*** μg mL^−1, the “C20:4n6 concentration, Phospholipids” value [5] was 31.2*** μg mL^−1 and the “C20:5n3 concentration, Phospholipids” value [5] was 1.2* μg mL^−1. The “C22:0 concentration, Phospholipids” value [5] was 1.8 µg/mL, the “C22:4n6 concentration, Phospholipids” value [5] was 2.1*** μg mL^−1 and the “C22:5n3 concentration, Phospholipids” value [5] was 12.8 µg/mL. The “C22:5n6 concentration, Phospholipids” value [5] was 1.8*** μg mL^−1, the “C22:6n3 concentration, Phospholipids” value [5] was 70.2** μg mL^−1 and the “C24:0 concentration, Phospholipids” value [5] was 1.0 µg/mL. For the same molecule, the “C24:1n9 concentration, Phospholipids” value [5] was 3.3 µg/mL, the “Total fatty acids concentration, Phospholipids” value [5] was 2105* μg mL^−1 and the “C14:0 composition, Phospholipids” value [6] was 0.25* %. The “C16:0 composition, Phospholipids” value [6] was 28.1** % and the “C16:1n7 composition, Phospholipids” value [6] was 0.36** %.
